Data taken from patent US20240384268A1, “Oligonucleotides” (Hudson Institute of Medical Research, priority 2021, published 2024).
In the oligonucleotide strings, read from the 5' end, every base follows the letter of its sugar. An asterisk marks phosphorothioate; unmarked linkages are phosphodiester. Other units and linkages are bracketed, terminal groups are in braces. A string of capitals states the bases alone. d = 2'-deoxy (DNA); m = 2'-O-methyl

Tests used:
TLR8 [1] = molecular target: T1, TLR8 (Homo sapiens, UniProt Q9NR97); test: R848-driven IP-10 production in THP-1 cells (TLR8); format: cell-based; design: expressed in transfected cells; details: 3mer 2'OMe ASO at 1 uM; raw values, Ligand only = 355.752, NT = 134.831;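 note: IP-10 by ELISA in supernatant after 7 h R848 stimulation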
T1 sequence (Q9NR97 27-1041): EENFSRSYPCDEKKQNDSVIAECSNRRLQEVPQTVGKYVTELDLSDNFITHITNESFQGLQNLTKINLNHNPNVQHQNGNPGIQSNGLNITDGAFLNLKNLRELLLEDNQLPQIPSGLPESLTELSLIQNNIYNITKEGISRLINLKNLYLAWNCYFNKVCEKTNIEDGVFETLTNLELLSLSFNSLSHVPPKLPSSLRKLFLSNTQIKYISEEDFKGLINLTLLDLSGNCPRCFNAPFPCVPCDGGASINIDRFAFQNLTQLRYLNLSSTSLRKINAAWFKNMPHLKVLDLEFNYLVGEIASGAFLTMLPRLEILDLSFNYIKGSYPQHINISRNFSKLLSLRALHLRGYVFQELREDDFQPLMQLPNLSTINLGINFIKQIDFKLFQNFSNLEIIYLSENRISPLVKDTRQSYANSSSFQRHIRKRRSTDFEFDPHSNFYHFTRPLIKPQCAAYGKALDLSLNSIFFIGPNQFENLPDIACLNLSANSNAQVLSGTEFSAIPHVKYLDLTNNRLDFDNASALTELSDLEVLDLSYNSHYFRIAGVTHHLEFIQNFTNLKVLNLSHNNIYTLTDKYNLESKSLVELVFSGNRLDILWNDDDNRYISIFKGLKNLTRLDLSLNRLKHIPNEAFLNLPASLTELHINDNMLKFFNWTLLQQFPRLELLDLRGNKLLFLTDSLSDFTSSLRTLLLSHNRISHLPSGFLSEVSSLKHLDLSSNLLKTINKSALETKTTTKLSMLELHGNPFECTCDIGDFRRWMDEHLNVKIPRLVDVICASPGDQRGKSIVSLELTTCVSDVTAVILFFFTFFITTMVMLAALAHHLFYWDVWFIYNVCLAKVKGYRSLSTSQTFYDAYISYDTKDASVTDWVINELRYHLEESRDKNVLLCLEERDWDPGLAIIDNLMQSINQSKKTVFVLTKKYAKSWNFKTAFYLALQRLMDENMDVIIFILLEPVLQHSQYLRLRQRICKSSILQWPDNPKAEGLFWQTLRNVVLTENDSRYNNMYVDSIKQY

TLR8 [2] = molecular target: T1, TLR8; test: HEK-TLR8 NF-κB-luciferase reporter, R848 or Motolimod stimulation (potentiation or inhibition); format: cell-based; design: expressed in transfected cells; host or cells: 293XLhTLR8 (HEK293); details: for TLR8 HEK 5 uM: 3mer 2'OMe ASO at 5 uM, value relative to Ligand only = 1.000, NT = 0.000; for TLR8 100 nM (averaged NF-κB-Luciferase level relative to R848 condition, fold increase): ASO 100 nM; for TLR8 100 nM (averaged NF-κB-Luciferase level relative to R848 condition, fold increase) / TLR8 500 nM (averaged NF-κB-Luciferase level relative to R848 condition, fold increase): relative to R848 only; for TLR8 500 nM (averaged NF-κB-Luciferase level relative to R848 condition, fold increase): ASO 500 nM
Procedure: (§1) In such examples, potentiation of TLR8 activity can be identified by observation of an overall increased TLR8 response of the cell population, or a higher proportion of cells having TLR8-positive activity as compared to a negative control condition in which cells are treated with TLR8 agonist in the absence of the oligonucleotide (or in the presence of an appropriate control non-potentiating agent). In one example, 293XLhTLR8 (referred to as HEK-TLR8) cells are transfected with pNF-κB-Luc4 reporter, incubated with an oligonucleotide, and then stimulated with R848. TLR8 activity can be determined by a luciferase assay, which measures activated NF-κB by luminescence. TLR8 activity can also be analysed by measuring cytokine levels, for example by ELISA.
as §1, with “inhibition” for “potentiation”, “decreased” for “increased”, “lower” for “higher”, “positive” for “negative”, “inhibitory” for “non-potentiating”
For cGAS stimulations, cells were treated for indicated duration with ASOs, prior to transfection with ISD70 (human cells) or ISD45 (mouse cells) (the ASOs were not washed off prior to ISD transfection unless otherwise indicated). The cGAS ligands ISD45 (Stetson and Medzhitov, 2006) and ISD70 (also known as VACV-70 (Unterholzner et al., 2010)) (Table 1) were resuspended as follows: 5 1d of sense and 5 μl of antisense strands at 10 μg/μl were added to 90 μl PBS under sterile conditions, heated at 75° C. for 30 min, prior to letting cool down at room temperature and aliquoting (stock at 1 μg/1 l). The ISDs were transfected at a concentration of […] at a ratio of 1 μg:1 μl with Lipofectamine 2000 in Opti-MEM (Thermo Fisher Scientific). HEK-TLR3, HEK-TLR7 and […] were treated with indicated concentration of ASOs for 20-50 min, prior to stimulation with poly(I:C) (Invivogen), R848 (Invivogen), Motolimod (MedChemExpress) and the Class B CpG oligonucleotides ODN 2006 (synthesised by IDT and resuspended in RNase-free TE buffer [Table 1]), respectively. The TLR2/1 agonist PAM3CSK4 (Invivogen), the TLR4 agonist lipopolysaccharide (Invivogen), the Class B CpG oligonucleotides ODN 1826 (synthesised by IDT and resuspended in RNase-free TE buffer), the mouse Sting agonist DMXAA (Cayman) and the human STING agonist (compound #3 from (Raanjulu et al., 2018), referred to as GSK herein—kind gift from Cancer Therapeutics CRC, Australia) were used at indicated concentrations. Aspirin (Sigma—A2093) was resuspended in pure medium to 10 mM, filter sterilised and added to the cells at 2 mM final. All ASOs were synthesised by Integrated DNA Technologies (IDT), and resuspended in RNase-free TE buffer, pH 8.0 (Thermo Fisher Scientific). Cell viability was assessed by adding 1× fresh resazurin solution to the wells (10λ solution made up with 7 mg resazurin [Sigma—R7017] dissolved in 3.5 ml PBS, sterile filtered at […]) for 4 h, prior to reading at with a Fluostar OPTIMA (BMG LABTECH) plate-reader (fluorescence: Excitation 535 nm, Emission 590); wells with medium only and 1× resazurin were used as blanks.

Substance | TLR8 1 uM (TLR8 [1]) | TLR8 HEK 5 uM (TLR8 [2]; HEK-TLR8) | TLR8 100 nM (averaged NF-κB-Luciferase level relative to R848 condition, fold increase) (TLR8 [2]) | TLR8 500 nM (averaged NF-κB-Luciferase level relative to R848 condition, fold increase) (TLR8 [2]) | effect of 3-mer 2′OMe PS oligos on TLR8 sensing in HEK-TLR8 (in words) (TLR8 [2]; HEK-TLR8, 5 μM naked 3-mer, Motolimod)
AAU (antisense mA*mA*mU) | 202.802 | 0.807 |  |  | 
ACU (antisense mA*mC*mU) | 250.907 | 0.896 |  |  | 
AGU (antisense mA*mG*mU) | 270.256 | 1.329 |  |  | 
AUA (antisense mA*mU*mA) | 157.293 | 0.812 |  |  | 
AUG (mA*mU*mG) | 151.847 | 0.828 |  |  | 
AUU (mA*mU*mU) | 274.683 | 0.762 |  |  | 
CAU (mC*mA*mU) | 388.191 | 0.752 |  |  | 
CCU (mC*mC*mU) | 332.524 | 0.613 |  |  | 
CGU (mC*mG*mU) | 346.350 | 1.327 |  |  | 
CUA (mC*mU*mA) | 243.564 | 0.642 |  |  | 
CUC (mC*mU*mC) | 245.566 | 0.685 |  |  | 
CUG (mC*mU*mG) | 264.072 | 1.074 |  |  | 
GCU (mG*mC*mU) | 193.279 | 0.810 |  |  | 
GGU (mG*mG*mU) | 274.989 | 1.380 |  |  | 
TTCGTGGGGTCCTTTT (antisense; LNA-modified, pattern not given here) [HPRT LNA-661 V1] |  |  | 0.621 | 3.144 | 
TTTTGGCTGGGATCAA (antisense; LNA-modified, pattern not given here) [CAMSAP1-4697 LNA KL] |  |  | 0.542 | 1.412 | 
UAA (mU*mA*mA) | 224.188 | 0.907 |  |  | 
UAC (mU*mA*mC) | 254.486 | 0.813 |  |  | 
UAG (mU*mA*mG) | 226.441 | 1.443 |  |  | 
UAU (mU*mA*mU) | 213.758 | 0.887 |  |  | 
UCC (mU*mC*mC) | 346.575 | 1.292 |  |  | 
UCU (mU*mC*mU) | 371.961 | 1.414 |  |  | 
UGC (mU*mG*mC) | 278.054 | 1.032 |  |  | 

Substance | TLR8 1 uM (TLR8 [1]) | TLR8 HEK 5 uM (TLR8 [2]; HEK-TLR8) | TLR8 100 nM (averaged NF-κB-Luciferase level relative to R848 condition, fold increase) (TLR8 [2]) | TLR8 500 nM (averaged NF-κB-Luciferase level relative to R848 condition, fold increase) (TLR8 [2]) | effect of 3-mer 2′OMe PS oligos on TLR8 sensing in HEK-TLR8 (in words) (TLR8 [2]; HEK-TLR8, 5 μM naked 3-mer, Motolimod)
UGU (mU*mG*mU) | 331.923 | 1.120 |  |  | 
UUA (mU*mU*mA) | 350.207 | 1.060 |  |  | 
UUC (mU*mU*mC) | 213.878 | 0.968 |  |  | 
UUG (listed as RNA, chemistry not fully specified) | 347.573 | 1.071 |  |  | 
UUU (mU*mU*mU) | 307.213 | 0.870 |  |  | 
dA*dA*dA (DNA AAA; listed as DNA, chemistry not fully specified) | 225.029 | 0.859 |  |  | 
dA*dA*dC (DNA AAC; listed as DNA, chemistry not fully specified) | 218.889 | 0.696 |  |  | 
dA*dA*dG (DNA AAG; listed as DNA, chemistry not fully specified) | 179.302 | 0.858 |  |  | 
dA*dC*dA (DNA ACA; listed as RNA, chemistry not fully specified) | 262.630 | 0.841 |  |  | 
dA*dG*dA (DNA AGA; listed as DNA, chemistry not fully specified) | 214.450 | 1.520 |  |  | 
dA*dG*dC (DNA AGC; listed as DNA, chemistry not fully specified) | 267.225 | 1.411 |  |  | 
dC*dA*dA (CAA; listed as DNA, chemistry not fully specified) | 373.157 | 0.811 |  |  | 
dC*dA*dC (CAC; listed as RNA, chemistry not fully specified) | 344.415 | 0.809 |  |  | 
dC*dC*dA (CCA; listed as DNA, chemistry not fully specified) | 181.239 | 0.946 |  |  | 
dC*dC*dC (CCC; listed as DNA, chemistry not fully specified) | 181.399 | 0.756 |  |  | 
dC*dC*dG (CCG; listed as DNA, chemistry not fully specified) | 437.264 | 0.899 |  |  | 
dC*dG*dA (CGA; listed as DNA, chemistry not fully specified) | 504.099 | 1.512 |  |  | 
dG*dC*dC [GCC] | 209.536 | 0.701 |  |  | 
dG*dC*dG [GCG] | 290.409 | 1.191 |  |  | 
mAmUmC (mA*mU*mC) [AUC, 3-mer 2′OMe PS oligo] | 181.793 | 0.674 |  |  | 
mCmUmU (antisense mC*mU*mU) [660-3] | 167.148 | 0.712 |  |  | 
mGmAmU (mG*mA*mU) [GAU, 3-mer 2′OMe PS oligo] | 147.162 | 0.528 |  |  | robustly the most potent
